Experimental data published in US20260308186A1, “STAT DEGRADERS AND USES THEREOF” (Recludix Pharma, Inc., priority 2023, published 2026).
Like-named read-outs stand apart in the source and are kept apart here.

What was measured:
[1] = molecular target: T1, STAT3 (Homo sapiens, UniProt P40763); test: STAT3 Fluorescence Polarization (FP) Assay; format: binding
T1 construct: Recombinant STAT3 protein (STAT3(G127-1722))
Experimental: STAT3 Fluorescence Polarization (FP) Assay
An FP assay was developed to determine IC50 values for test substances. Recombinant STAT3 protein (STAT3(G127-1722)) at 25 nM was combined with a fluorescently labeled, phosphotyrosine peptide probe (5-FAM-GpYLPQTV-NH2) at 2 nM in FP buffer (10 mM HEPES pH 7.4, 50 mM NaCl, 1 mM EDTA, 0.05% Tween 20.2 mM DTT). 50 μL of STAT3-probe mixture was added to serial diluted compounds in black, 96-well plates (Greiner BioOne 655076) to a final concentration of 1% DMSO. Reaction components were mixed, and FP was measured after 45-minute incubation at room temperature using a Tecan Spark multimode plate reader. FP signal (mP) was plotted against the log concentration of the test substances and IC50 values were calculated by nonlinear regression analysis using GraphPad Prism software. For STAT3 FP assay. A=≤100 nM; B=>100-1000 nM; C=>1-10 μM; and D=>10 μM.

[2] = molecular target: T2, STAT6 (Homo sapiens, UniProt P42226); test: STAT6 Fluorescence Polarization (FP) Assay; format: binding
T2 construct: Recombinant STAT6 protein (STAT6(W123-T658))
T2 sequence (P42226 123-658): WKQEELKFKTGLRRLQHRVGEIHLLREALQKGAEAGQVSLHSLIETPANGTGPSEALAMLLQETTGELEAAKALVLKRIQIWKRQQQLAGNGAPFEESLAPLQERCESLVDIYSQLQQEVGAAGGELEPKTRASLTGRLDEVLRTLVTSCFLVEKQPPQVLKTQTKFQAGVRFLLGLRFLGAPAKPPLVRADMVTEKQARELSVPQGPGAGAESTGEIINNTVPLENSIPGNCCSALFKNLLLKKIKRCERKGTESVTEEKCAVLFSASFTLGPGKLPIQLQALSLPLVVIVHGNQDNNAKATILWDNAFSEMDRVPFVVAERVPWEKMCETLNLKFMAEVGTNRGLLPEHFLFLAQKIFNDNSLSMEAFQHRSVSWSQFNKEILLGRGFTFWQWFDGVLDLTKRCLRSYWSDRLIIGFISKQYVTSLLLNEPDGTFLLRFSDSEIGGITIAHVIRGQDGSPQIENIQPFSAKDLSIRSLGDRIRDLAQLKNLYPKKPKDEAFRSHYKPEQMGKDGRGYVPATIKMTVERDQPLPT
Experimental: STAT6 Fluorescence Polarization (FP) Assay
An FP assay was developed to determine IC50 values for test substances. Recombinant STAT6 protein (STAT6(W123-T658)) at 250 nM was combined with a fluorescently labeled, phosphotyrosine peptide probe (5-FAM-Ap[…]-NH2) at 2 nM in FP buffer (10 mM HEPES pH 7.4, 50 mM NaCl, 1 mM EDTA, 0.05% Tween 20, 2 mM DTT), 50 μL of STAT6-probe mixture was added to serial diluted compounds in black, 96-well plates (Greiner BioOne 655076) to a final concentration of 1% DMSO. Reaction components were mixed, and FP was measured after 45-minute incubation at room temperature using a Tecan Spark multimode plate reader. FP signal (mP) was plotted against the log concentration of the test substances and IC50 values were calculated by nonlinear regression analysis using GraphPad Prism software. For STAT6 FP assay. A=≤300 nM; B=>300-3000 nM; C=>3-30 μM; and D=>30 μM.

[3] = molecular target: T3, pSTAT6 (Homo sapiens, UniProt P42226); test: MSD-pSTAT-PBMC Assay, pSTAT6 (IL-4 stimulated PBMC); format: cell-based
T3 construct: pY641-STAT6 MSD read-out
T3 sequence (P42226 1-847): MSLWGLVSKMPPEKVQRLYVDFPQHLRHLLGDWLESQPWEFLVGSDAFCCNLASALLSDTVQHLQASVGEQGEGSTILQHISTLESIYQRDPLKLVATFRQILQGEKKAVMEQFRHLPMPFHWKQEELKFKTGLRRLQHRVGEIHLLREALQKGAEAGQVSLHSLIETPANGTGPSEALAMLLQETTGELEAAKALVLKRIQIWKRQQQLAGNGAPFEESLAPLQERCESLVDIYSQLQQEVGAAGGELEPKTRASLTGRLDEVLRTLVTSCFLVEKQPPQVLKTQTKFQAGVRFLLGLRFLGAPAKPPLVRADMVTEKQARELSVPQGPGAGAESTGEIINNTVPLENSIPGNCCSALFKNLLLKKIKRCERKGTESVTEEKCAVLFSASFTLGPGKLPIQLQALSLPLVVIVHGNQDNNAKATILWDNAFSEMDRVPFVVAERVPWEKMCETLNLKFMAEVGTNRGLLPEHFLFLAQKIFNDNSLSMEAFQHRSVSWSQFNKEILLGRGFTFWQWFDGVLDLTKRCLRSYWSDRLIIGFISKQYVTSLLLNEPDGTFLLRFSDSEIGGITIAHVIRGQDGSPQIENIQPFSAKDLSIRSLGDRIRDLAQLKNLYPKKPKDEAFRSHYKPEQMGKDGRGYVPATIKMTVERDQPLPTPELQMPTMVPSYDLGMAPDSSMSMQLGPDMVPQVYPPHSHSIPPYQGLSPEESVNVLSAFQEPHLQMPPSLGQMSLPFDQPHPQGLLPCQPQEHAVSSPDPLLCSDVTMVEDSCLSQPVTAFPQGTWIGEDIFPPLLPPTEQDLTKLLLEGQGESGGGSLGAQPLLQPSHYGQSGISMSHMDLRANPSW
Description: Cryopreserved Peripheral Blood Mononuclear Cells (PBMC) are from AllCells. Recombinant Human IL-4 and IL-6 are from Peprotech. Mouse monoclonal anti-STAT3 antibody, rabbit monoclonal anti-pY705-STAT3 antibody, rabbit monoclonal Anti-pY641-STAT6 antibody, and lysis buffer are from Cell Signaling Technology (CST). Mouse monoclonal anti-STAT6 antibody is from BioLegend. Assay plates, blocker, and anti-rabbit secondary antibody are from Meso Scale Discovery (MSD).
Cryopreserved PBMCs were thawed out and allowed to recover overnight in IMDM+10% heat-inactivated FBS prior to plating 50,000 (STAT3) or 25,000 (STAT6) cells per well in 96-well U-bottom tissue culture plates. Cells were treated with compound for 3 hrs. then stimulated with 10 ng/mL IL-6 (STAT3) or 1 ng/mL IL-4 (STAT6) for 10 min. Cells were then spun down and washed with ice-cold PBS prior to lysing the cell pellet with 1× lysis buffer (CST) with 1×HALT protease and phosphatase inhibitor cocktail (Thermo). Lysates were transferred to and incubated overnight at 4° C. with shaking in QuickPlex 96-well high bind assay plates (MSD) pre-coated overnight with 30 μL per well of 0.6 μg/mL mouse monoclonal anti-STAT3 antibody (STAT3) or 2 μg/mL mouse monoclonal anti-STAT6 antibody (STAT6) in 1×PBS, and pre-blocked for 1 hour with 3% Blocker-A (MSD). Captured protein in the assay plates were then washed and probed with 25 μL per well of 0.25 μg/ml rabbit monoclonal anti-pY705-STAT3 antibody (STAT3) or 0.18 μg/ml rabbit monoclonal Anti-pY641-STAT6 antibody (STAT6) in 1% Blocker-A for 1 hour at room temperature with shaking, then washed and probed with 25 ul per well of 1 ug/ml Sulfo-TAG Labeled Goat Anti-Rabbit Antibody (MSD) in 1% Blocker-A for 1 hour at room temperature with shaking. Assay plates were then washed and 150 μL of 1× Read Buffer-T (MSD) was added to each well prior to reading on an SQ120 MSD Plate Reader. Assay signal from each sample was subtracted by the signal from unstimulated control wells and normalized to DMSO control wells. IC50 values were calculated using Graph Pad Prism Dose-Response Nonlinear Regression with variable slope. For both pSTAT3 and pSTAT6 A=≤100 nM; B=>100-1000 nM; C=>1000-3000 nM; and D=>3 μM.

[4] = read-out: pSTAT6 IC50, compound 3 hrs, then 1 ng/mL IL-4 for 10 min, pY641-STAT6
[5] = recombinant STAT3 25 nM, probe 5-FAM-GpYLPQTV-NH2 2 nM, 45 min, room temperature, read-out: STAT3 FP IC50
[6] = recombinant STAT6(W123-T658) 250 nM, probe 5-FAM-Ap[…]-NH2 2 nM, 45 min, room temperature, read-out: STAT6 FP IC50
[7] = compound 3 hrs, then 1 ng/mL IL-4 for 10 min, pY641-STAT6, read-out: pSTAT6 IC50

T1 sequence (P40763 127-722 limits assumed): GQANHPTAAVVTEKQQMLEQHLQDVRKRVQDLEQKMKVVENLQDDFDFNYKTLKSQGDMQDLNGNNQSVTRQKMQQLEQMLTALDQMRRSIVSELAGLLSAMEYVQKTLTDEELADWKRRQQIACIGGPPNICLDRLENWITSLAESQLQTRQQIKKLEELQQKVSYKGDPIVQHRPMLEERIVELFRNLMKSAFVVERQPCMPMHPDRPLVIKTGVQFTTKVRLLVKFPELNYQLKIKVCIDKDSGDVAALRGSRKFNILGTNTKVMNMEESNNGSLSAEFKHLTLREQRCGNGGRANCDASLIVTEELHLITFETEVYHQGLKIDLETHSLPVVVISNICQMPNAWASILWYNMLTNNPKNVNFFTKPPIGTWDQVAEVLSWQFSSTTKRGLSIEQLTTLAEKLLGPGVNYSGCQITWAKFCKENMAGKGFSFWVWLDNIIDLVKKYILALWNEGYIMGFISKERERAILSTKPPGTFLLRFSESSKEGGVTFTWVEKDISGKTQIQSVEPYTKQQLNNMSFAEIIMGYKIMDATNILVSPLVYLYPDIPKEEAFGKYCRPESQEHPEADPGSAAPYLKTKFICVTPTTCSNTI

| Structure (SMILES) | IC50 [1] | IC50 [2] | IC50 [3, 4] | IC50 [1, 5] | IC50 [2, 6] | IC50 [3, 7] |
| --- | --- | --- | --- | --- | --- | --- |
| Cc1ccc2[nH]nc(C(=O)N3CC[C@H]4CC[C@@H](C(=O)N(C)CCCCCCC#Cc5cccc6c5CN(C5CCC(=O)NC5=O)C6=O)N4C(=O)[C@@H](NC(=O)c4ccc5ccc(C(F)(F)P(=O)(O)O)cc5c4)C3)c2c1 (stereo partly drawn) [Compound 11, ((7-(((5S,8S,10aR)-8-((8-(2-(2,6-dioxopiperidin-3-yl)-1-oxoisoindolin-4-yl)oct-7-yn-1-yl)(methyl)carbamoyl)-3-(5-methyl-1H-indazole-3-carbonyl)-6-oxodecahydropyrrolo[1,2-a][1,5]diazocin-5-yl)carbamoyl)naphthalen-2-yl)difluoromethyl)phosphonic acid] | 1 to 10 µM | < 300 nM | 100 to 1000 nM |  |  |  |
| Cc1ccc2[nH]nc(C(=O)N3CC[C@H]4CC[C@@H](C(=O)N(C)CCCCCCC#Cc5cccc6c5CN(C5CCC(=O)NC5=O)C6=O)N4C(=O)[C@@H](NC(=O)c4ccc5ccc(C(F)P(=O)(O)O)cc5c4)C3)c2c1 (stereo partly drawn) [Compound 14, ((7-(((5S,8S,10aR)-8-((8-(2-(2,6-dioxopiperidin-3-yl)-1-oxoisoindolin-4-yl)oct-7-yn-1-yl)(methyl)carbamoyl)-3-(5-methyl-1H-indazole-3-carbonyl)-6-oxodecahydropyrrolo[1,2-a][1,5]diazocin-5-yl)carbamoyl)naphthalen-2-yl)fluoromethyl)phosphonic acid] | > 10 µM | 300 to 3000 nM | > 3000 nM |  |  |  |
| Cc1ccc2[nH]nc(C(=O)N3CC[C@H]4CC[C@@H](C(=O)N(C)CCCCCCC#Cc5cccc6c5CN(C5CCC(=O)NC5=O)C6=O)N4C(=O)[C@@H](NC(=O)c4ccc5ccc(CP(=O)(O)O)cc5c4)C3)c2c1 (stereo partly drawn) [Compound 15, ((7-(((5S,8S,10aR)-8-((8-(2-(2,6-dioxopiperidin-3-yl)-1-oxoisoindolin-4-yl)oct-7-yn-1-yl)(methyl)carbamoyl)-3-(5-methyl-1H-indazole-3-carbonyl)-6-oxodecahydropyrrolo[1,2-a][1,5]diazocin-5-yl)carbamoyl)naphthalen-2-yl)methyl)phosphonic acid] | > 10 µM | 300 to 3000 nM | > 3000 nM |  |  |  |
| Cc1ccc2onc(C(=O)N3CC[C@H]4CC[C@@H](C(=O)N(C)CCCCCCC#Cc5cccc6c5CN(C5CCC(=O)NC5=O)C6=O)N4C(=O)[C@@H](NC(=O)c4ccc5ccc(C(F)(F)P(=O)(O)O)cc5c4)C3)c2c1 (stereo partly drawn) [Compound 22, ((7-(((5S,8S,10aR)-8-((8-(2-(2,6-dioxopiperidin-3-yl)-1-oxoisoindolin-4-yl)oct-7-yn-1-yl)(methyl)carbamoyl)-3-(5-methylbenzo[d]isoxazole-3-carbonyl)-6-oxodecahydropyrrolo[1,2-a][1,5]diazocin-5-yl)carbamoyl)naphthalen-2-yl)difluoromethyl)phosphonic acid] |  |  |  | > 10 µM | < 300 nM | 100 to 1000 nM |
| Cc1ccc2onc(C(=O)N3CC[C@H]4CC[C@@H](C(=O)N(C)CC(=O)N[C@H](C(=O)N5C[C@H](O)C[C@H]5C(=O)N[C@@H](C)c5ccc(-c6scnc6C)cc5)C(C)(C)C)N4C(=O)[C@@H](NC(=O)c4ccc5ccc(C(F)(F)P(=O)(O)O)cc5c4)C3)c2c1 [Compound 27, (difluoro(7-(((5S,8S,10aR)-8-((2-(((S)-1-((2S,4R)-4-hydroxy-2-(((S)-1-(4-(4-methylthiazol-5-yl)phenyl)ethyl)carbamoyl)pyrrolidin-1-yl)-3,3-dimethyl-1-oxobutan-2-yl)amino)-2-oxoethyl)(methyl)carbamoyl)-3-(5-methylbenzo[d]isoxazole-3-carbonyl)-6-oxodecahydropyrrolo[1,2-a][1,5]diazocin-5-yl)carbamoyl)naphthalen-2-yl)methyl)phosphonic acid] |  |  |  | 1 to 10 µM | < 300 nM | > 3000 nM |
| Cc1ccc2onc(C(=O)N3CC[C@H]4CC[C@@H](C(=O)N(C)CCC#Cc5cccc6c5CN(C5CCC(=O)NC5=O)C6=O)N4C(=O)[C@@H](NC(=O)c4ccc5ccc(C(F)(F)P(=O)(O)O)cc5c4)C3)c2c1 (stereo partly drawn) [Compound 28, ((7-(((5S,8S,10aR)-8-((4-(2-(2,6-dioxopiperidin-3-yl)-1-oxoisoindolin-4-yl)but-3-yn-1-yl)(methyl)carbamoyl)-3-(5-methylbenzo[d]isoxazole-3-carbonyl)-6-oxodecahydropyrrolo[1,2-a][1,5]diazocin-5-yl)carbamoyl)naphthalen-2-yl)difluoromethyl)phosphonic acid] |  |  |  | 1 to 10 µM | < 300 nM | > 3000 nM |
